According to the NIST ThermoML archive (doi:10.1016/j.jct.2010.09.003):
Numbers after ± are expanded uncertainties.

Legend:
[1] = Ring tensiometer
[2] = xn = mol fraction of the nth substance listed; conditions: Ring tensiometer

OCCO [1,2-ethanediol]
[1]
Conditions	surface tension liquid-gas [mN/m]
283.15 K	49.27 ± 0.66
298.15 K	48.22 ± 0.65
308.15 K	47.29 ± 0.64

OCCO [1,2-ethanediol] + CC#N
[2]
Conditions	surface tension liquid-gas [mN/m]
283.15 K, x2 = 0.0102	47.92 ± 0.65
283.15 K, x2 = 0.0202	46.5 ± 0.63
283.15 K, x2 = 0.0349	44.85 ± 0.61
283.15 K, x2 = 0.0488	41.85 ± 0.57
283.15 K, x2 = 0.0611	41.1 ± 0.57
283.15 K, x2 = 0.0851	39 ± 0.54
283.15 K, x2 = 0.0936	38.18 ± 0.54
283.15 K, x2 = 0.102	36.99 ± 0.52
283.15 K, x2 = 0.1141	36.8 ± 0.52
283.15 K, x2 = 0.126	35.72 ± 0.51
283.15 K, x2 = 0.1413	34 ± 0.49
283.15 K, x2 = 0.1561	33.22 ± 0.48
283.15 K, x2 = 0.1765	32.67 ± 0.47
283.15 K, x2 = 0.1902	32.45 ± 0.47
283.15 K, x2 = 0.2426	32.01 ± 0.46
283.15 K, x2 = 0.29	31.75 ± 0.45
283.15 K, x2 = 0.3379	31.68 ± 0.45
283.15 K, x2 = 0.3895	31.49 ± 0.45
283.15 K, x2 = 0.4202	31.44 ± 0.45
283.15 K, x2 = 0.5197	31.05 ± 0.44
283.15 K, x2 = 0.7564	30.55 ± 0.43
283.15 K, x2 = 0.9008	30.01 ± 0.43
298.15 K, x2 = 0.0109	47.82 ± 0.64
298.15 K, x2 = 0.0199	47.46 ± 0.64
298.15 K, x2 = 0.0361	46.85 ± 0.63
298.15 K, x2 = 0.072	45.45 ± 0.62
298.15 K, x2 = 0.0845	44.97 ± 0.61
298.15 K, x2 = 0.1012	44.23 ± 0.6
298.15 K, x2 = 0.1402	42.7 ± 0.6
298.15 K, x2 = 0.1599	40.49 ± 0.56
298.15 K, x2 = 0.1992	40.13 ± 0.55
298.15 K, x2 = 0.2569	37.76 ± 0.52
298.15 K, x2 = 0.2999	36.35 ± 0.51
298.15 K, x2 = 0.35	34.9 ± 0.5
298.15 K, x2 = 0.4345	33 ± 1
298.15 K, x2 = 0.4888	32.25 ± 0.45
298.15 K, x2 = 0.5699	31.53 ± 0.45
298.15 K, x2 = 0.6321	31.01 ± 0.44
298.15 K, x2 = 0.7099	30.49 ± 0.43
298.15 K, x2 = 0.7765	30.17 ± 0.43
298.15 K, x2 = 0.8499	29.71 ± 0.42
308.15 K, x2 = 0.0202	46.45 ± 0.63
308.15 K, x2 = 0.0349	45.63 ± 0.62
308.15 K, x2 = 0.0674	43.75 ± 0.6
308.15 K, x2 = 0.0851	42.8 ± 0.59
308.15 K, x2 = 0.1021	41.75 ± 0.57
308.15 K, x2 = 0.1568	39.26 ± 0.54
308.15 K, x2 = 0.1852	37.85 ± 0.53
308.15 K, x2 = 0.1987	37.18 ± 0.52
308.15 K, x2 = 0.2426	35.5 ± 0.5
308.15 K, x2 = 0.2976	34.05 ± 0.48
308.15 K, x2 = 0.4144	31.64 ± 0.45
308.15 K, x2 = 0.4734	30.85 ± 0.44
308.15 K, x2 = 0.5101	30.41 ± 0.43
308.15 K, x2 = 0.6453	28.95 ± 0.42
308.15 K, x2 = 0.7654	28.53 ± 0.41
308.15 K, x2 = 0.9352	27.83 ± 0.4

OCCO [1,2-ethanediol] + O
[2]
Conditions	surface tension liquid-gas [mN/m]
283.15 K, x1 = 0.0078	73.5 ± 0.93
283.15 K, x1 = 0.0132	72.59 ± 0.92
283.15 K, x1 = 0.0216	71.19 ± 0.91
283.15 K, x1 = 0.0334	69.9 ± 0.89
283.15 K, x1 = 0.0498	68.63 ± 0.88
283.15 K, x1 = 0.0632	67.15 ± 0.86
283.15 K, x1 = 0.0875	64.99 ± 0.83
283.15 K, x1 = 0.1152	63.9 ± 0.82
283.15 K, x1 = 0.1436	62.16 ± 0.8
283.15 K, x1 = 0.1635	60.8 ± 0.79
283.15 K, x1 = 0.2002	59.26 ± 0.77
283.15 K, x1 = 0.2509	57.72 ± 0.75
283.15 K, x1 = 0.2895	56.46 ± 0.74
283.15 K, x1 = 0.4112	54.53 ± 0.71
283.15 K, x1 = 0.4753	53.16 ± 0.7
283.15 K, x1 = 0.6668	51.62 ± 0.68
283.15 K, x1 = 0.7562	50.82 ± 0.68
283.15 K, x1 = 0.8958	49.84 ± 0.67
298.15 K, x1 = 0.0083	71.18 ± 0.91
298.15 K, x1 = 0.0144	70.41 ± 0.9
298.15 K, x1 = 0.0246	69.25 ± 0.88
298.15 K, x1 = 0.0351	68.12 ± 0.87
298.15 K, x1 = 0.0466	66.95 ± 0.86
298.15 K, x1 = 0.0556	66.14 ± 0.85
298.15 K, x1 = 0.0899	63.74 ± 0.82
298.15 K, x1 = 0.1042	62.68 ± 0.81
298.15 K, x1 = 0.1342	61.16 ± 0.79
298.15 K, x1 = 0.1624	59.99 ± 0.78
298.15 K, x1 = 0.1989	58.5 ± 0.8
298.15 K, x1 = 0.2499	56.89 ± 0.74
298.15 K, x1 = 0.2996	55.65 ± 0.73
298.15 K, x1 = 0.401	53.63 ± 0.7
298.15 K, x1 = 0.4999	52.22 ± 0.69
298.15 K, x1 = 0.65	50.65 ± 0.67
298.15 K, x1 = 0.75	49.82 ± 0.66
298.15 K, x1 = 0.8987	48.68 ± 0.65
308.15 K, x1 = 0.008	69.14 ± 0.88
308.15 K, x1 = 0.0141	68.26 ± 0.87
308.15 K, x1 = 0.0253	66.81 ± 0.86
308.15 K, x1 = 0.0353	65.67 ± 0.84
308.15 K, x1 = 0.0511	64.1 ± 0.82
308.15 K, x1 = 0.0556	63.7 ± 0.82
308.15 K, x1 = 0.0905	61.09 ± 0.79
308.15 K, x1 = 0.1113	59.86 ± 0.78
308.15 K, x1 = 0.1445	58.26 ± 0.76
308.15 K, x1 = 0.1602	57.62 ± 0.75
308.15 K, x1 = 0.2132	55.84 ± 0.73
308.15 K, x1 = 0.2485	54.9 ± 0.72
308.15 K, x1 = 0.3201	53.39 ± 0.7
308.15 K, x1 = 0.4126	51.95 ± 0.69
308.15 K, x1 = 0.5054	50.84 ± 0.67
308.15 K, x1 = 0.6501	49.52 ± 0.66
308.15 K, x1 = 0.7406	48.84 ± 0.65
308.15 K, x1 = 0.8875	47.91 ± 0.64

CC#N [acetonitrile] + O
[2]
Conditions	surface tension liquid-gas [mN/m]
283.15 K, x1 = 0.0051	70.6 ± 0.91
283.15 K, x1 = 0.0101	67.18 ± 0.87
283.15 K, x1 = 0.0151	64.36 ± 0.83
283.15 K, x1 = 0.0217	61.23 ± 0.8
283.15 K, x1 = 0.0298	57.99 ± 0.76
283.15 K, x1 = 0.0377	55.36 ± 0.73
283.15 K, x1 = 0.0486	52.34 ± 0.69
283.15 K, x1 = 0.0593	49.47 ± 0.66
283.15 K, x1 = 0.0871	44.54 ± 0.6
283.15 K, x1 = 0.1011	42.3 ± 0.57
283.15 K, x1 = 0.1431	38.03 ± 0.52
283.15 K, x1 = 0.1615	35.51 ± 0.49
283.15 K, x1 = 0.1847	34.35 ± 0.48
283.15 K, x1 = 0.2068	33.9 ± 0.47
283.15 K, x1 = 0.2327	33.51 ± 0.47
283.15 K, x1 = 0.3098	32.89 ± 0.46
283.15 K, x1 = 0.3971	32.56 ± 0.46
283.15 K, x1 = 0.4878	32.29 ± 0.45
283.15 K, x1 = 0.6557	32.06 ± 0.45
283.15 K, x1 = 0.8056	31.26 ± 0.44
283.15 K, x1 = 0.9592	29.83 ± 0.43
298.15 K, x1 = 0.0149	62.36 ± 0.81
298.15 K, x1 = 0.0298	55.92 ± 0.73
298.15 K, x1 = 0.0516	49.39 ± 0.66
298.15 K, x1 = 0.0653	45.96 ± 0.61
298.15 K, x1 = 0.086	42.2 ± 0.57
298.15 K, x1 = 0.095	40.54 ± 0.55
298.15 K, x1 = 0.1023	39.63 ± 0.54
298.15 K, x1 = 0.1227	37.97 ± 0.52
298.15 K, x1 = 0.1403	36.42 ± 0.5
298.15 K, x1 = 0.157	35.68 ± 0.49
298.15 K, x1 = 0.1855	33.97 ± 0.47
298.15 K, x1 = 0.195	34.11 ± 0.48
298.15 K, x1 = 0.2541	32.92 ± 0.46
298.15 K, x1 = 0.3256	32.34 ± 0.45
298.15 K, x1 = 0.3959	31.68 ± 0.45
298.15 K, x1 = 0.4851	31.45 ± 0.44
298.15 K, x1 = 0.5913	30.95 ± 0.44
298.15 K, x1 = 0.693	30.37 ± 0.43
298.15 K, x1 = 0.7968	29.46 ± 0.42
308.15 K, x1 = 0.0217	60.53 ± 0.78
308.15 K, x1 = 0.0298	59 ± 0.77
308.15 K, x1 = 0.0377	55.56 ± 0.73
308.15 K, x1 = 0.0727	48.05 ± 0.64
308.15 K, x1 = 0.0871	45.83 ± 0.62
308.15 K, x1 = 0.1304	40.09 ± 0.55
308.15 K, x1 = 0.1431	38.79 ± 0.53
308.15 K, x1 = 0.1615	36.94 ± 0.51
308.15 K, x1 = 0.1847	35.7 ± 0.49
308.15 K, x1 = 0.2068	33.9 ± 0.47
308.15 K, x1 = 0.2327	33.51 ± 0.47
308.15 K, x1 = 0.3098	31.04 ± 0.44
308.15 K, x1 = 0.3971	30.05 ± 0.43
308.15 K, x1 = 0.4999	29.11 ± 0.42
308.15 K, x1 = 0.6557	28.41 ± 0.41
308.15 K, x1 = 0.7775	28.21 ± 0.41
308.15 K, x1 = 0.9592	28.05 ± 0.4

O [water]
[1]
Conditions	surface tension liquid-gas [mN/m]
283.15 K	74.47 ± 0.94
298.15 K	72.06 ± 0.92
308.15 K	70.41 ± 0.9

CC#N [acetonitrile]
[1]
Conditions	surface tension liquid-gas [mN/m]
283.15 K	29.73 ± 0.42
298.15 K	28.2 ± 0.41
308.15 K	27.47 ± 0.4
